System: histamine H2 -receptors
Assay: inhibition of histamine-stimulated secretion of gastric acid from lumen-perfused stomachs of rats anaesthetised with urethane
Type: in vivo, rat
Settings: i.v., lumen-perfused stomach of urethane-anaesthetised rats

Row | SMILES | dose causing 50% inhibition of maximal acid secretion
1 | Cc1ccc(Cc2cnc(CCSCc3csc(NC(=N)N)n3)[nH]c2=O)cn1.Cl.Cl.Cl.O [Example 1, 2-[2-(2-guanidino-4-thiazolylmethylthio)ethyl]-5-(6-methyl-3-pyridylmethyl)-4-pyrimidone trihydrochloride hydrate] | less than 1 micromole kg^-1
2 | Cc1ccc(Cc2cnc(CCSCc3ccc(CN(C)C)o3)[nH]c2=O)cn1 [Example 2, 2-[2-(5-dimethylaminomethyl-2-furanylmethylthio)ethyl]-5-(6-methyl-3-pyridyl-ylmethyl)-4-pyrimidone] | less than 1 micromole kg^-1

— patent US4808589A, “Pyrimidone derivatives” (Smith Kline & French Laboratories Limited, priority 1982, dated 1989)
